According to US20190055231A1, “BACE1 INHIBITORS” (Hoffmann-La Roche Inc., priority 2016, published 2019):

Assays:
BACE1 [1] = target: T1, BACE1 (Homo sapiens, UniProt P56817); test: BACE1 cell-free assay (BACE1 enzyme assay); assay type: biochemical
Description: BACE1 Cell-Free Assay (BACE1 Enzyme Assay)
(§1) The determination of BACE1 activity can be either measured by using an enzymatic cell-free fluorescence assay (BACE1 cell free, table 2) or by a whole cell assay using HEK293 APP cells (Cellular Aβ-lowering, table 2). Both assays are suitable to determine BACE1 inhibition.

BACE2 = target: T2, BACE2 (Homo sapiens, UniProt Q9Y5Z0); test: BACE2 cell-free assay (BACE2 enzyme assay); assay type: biochemical; settings: BACE2 IC50 divided by BACE1 IC50, cell free assays
T2 sequence (Q9Y5Z0 63-518): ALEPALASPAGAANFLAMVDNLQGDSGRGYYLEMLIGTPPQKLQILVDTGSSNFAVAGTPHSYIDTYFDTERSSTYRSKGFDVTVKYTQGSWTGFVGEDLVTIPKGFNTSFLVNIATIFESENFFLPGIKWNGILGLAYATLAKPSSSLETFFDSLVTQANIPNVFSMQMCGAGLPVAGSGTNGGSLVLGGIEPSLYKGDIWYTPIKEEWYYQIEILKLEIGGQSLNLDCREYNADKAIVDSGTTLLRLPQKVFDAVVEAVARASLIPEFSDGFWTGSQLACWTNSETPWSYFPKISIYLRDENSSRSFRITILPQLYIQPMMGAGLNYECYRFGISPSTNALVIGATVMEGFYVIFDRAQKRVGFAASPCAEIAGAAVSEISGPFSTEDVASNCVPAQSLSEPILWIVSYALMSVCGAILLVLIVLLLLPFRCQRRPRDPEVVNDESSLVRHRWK
Description: BACE2 Cell-Free Assay (BACE2 Enzyme Assay)
Selectivity versus related targets is important in terms of safety of a drug candidate. BACE2 is a close homolog of BACE1. BACE2 was recently reported to play a crucial role in pigmentation of the skin by processing pigment cell-specific melanocyte protein (PMEL). (Proc Natl Acad Sci USA. 2013 Jun. 25; 110(26):10658-63. doi: 10.1073/pnas.1220748110. Epub 2013 Jun. 10). It is believed that PMEL contributes in melanogenesis. Therefore, selectivity versus BACE2 is advantageous when it comes to pigmentation of the skin. The selectivity ratio of BACE2/BACE1 IC50 was calculated by dividing the BACE2 IC50 value by the BACE1 IC50 value determined each in the cell free assay. […] This implies a 3-fold improvement of example 1 compared to comparators 4 and 5.

[2] = tested on: Aβ40 in brain of wild-type mice; test: Mouse acute in vivo model (inhibition of Aβ40 in brain of wild-type mice); settings: 4 h post dose; for Brain Aβ-lowering 3 mg/kg: single p.o. dose 3 mg/kg; for Brain Aβ-lowering 10 mg/kg: single p.o. dose 10 mg/kg; for Brain Aβ-lowering 30 mg/kg: single p.o. dose 30 mg/kg
Procedure: Mouse Acute In Vivo Model (Inhibition of Aβ40 in Brain of Wild-Type Mice)
Single Dose Efficacy in Mice
The mouse single dose efficacy was measured in brain homogenate from C57Bl/6J wildtype mice after DEA extraction as described in H. Hilpert et al., J. Med. Chem. 2013, 56, 3980-3995 (dx.doi.org/10.1021/jm400225m).
Aβ 40 concentration was determined after solid phase extraction as described above and following a modified protocol from Perkin-Elmer with a commercially available antibody against the N-terminal part of rat Aβ (252Q6, Invitrogen cat. No. AMB0062) and an in-house C-terminal specific anti-Aβ40 antibody (BAP-24, Brockhaus M. et al., J. Neuroreport, 1998, 9:1481-1486) bound to acceptor beads (PerkinElmer, Cat. 6772002). 20 μl analyte per well (reconstituted extracts or standard) were loaded to a White Optiplate-96 (Perkin-Elmer, Cat#6005290). Then, a mixture of biotinylated BAP24 antibody (1:2000 diluted at approximately 1 nM final concentration) and antibody 252Q6 bound to AlphaLISA acceptor beads (Perkin-Elmer cat. No. 6772002 (1:100 diluted, 10 ug/mL final concentration) in 1× AlphaLISA buffer (Perkin-Elmer, AL000F) was added. After 1 hour room temperature incubation in the dark, 20 uL of a streptavidin coated donor beads dilution (40 μg/mL) were added and incubated for 30 minutes in the dark. Light emission at 615 nm was recorded using an EnVision AlphaScreen Reader (Perkin-Elmer). Levels of Aβ40 were calculated as percentage of the baseline samples from non-treated animals.
Aβ40 lowering was determined after oral administration in wild-type mice (C57Bl/6J mice, n=3-4) 4 h post dosing. Wild-type mice were used as they have a normal physiological level of APP expression and are thus expected to provide a better physiological model for Aβ-peptide production than APP-transgenic organisms. In vivo efficacy is a key factor for appropriate drug candidates, being more relevant than in vitro activities.

Human P-gp = Human P-gp (Homo sapiens, UniProt P08183); test: P-gp transport assay (human); assay type: in vitro ADME; settings: efflux ratio
Description: (§2) P-Gp Transport Assay (Human and Mouse) (P-Gp Assay)
(§3) In the assay of the P-gp efflux ratio ER as described hereinabove, a compound with ER<2.5 is regarded most suitable. In addition, compounds with low hERG channel binding are suitable as well.

Mouse P-gp = Mouse P-gp (Mus musculus, UniProt P21447); test: P-gp transport assay (mouse); assay type: in vitro ADME; settings: efflux ratio
Description: as §2, §3

BACE1 [3] = target: T1, BACE1; test: Cellular Aβ-lowering assay (Abeta 40 AlphaLISA, HEK293 APP cells); assay type: cell-based; design: endogenous in cells; host or cells: HEK293 APP cells
Procedure: Cellular Aβ-Lowering Assay:
The Abeta 40 AlphaLISA Assay can be used. The HEK293 APP cells were seeded in 96 well Microtiter plates in cell culture medium (Iscove's, plus 10% (v/v) fetal bovine serum, penicillin/streptomycin) to about 80% confluency and the compounds were added at a 3× concentration in ⅓ volume of culture medium (final DMSO concentration was kept at 1% v/v). After 18-20 hrs incubation at 37° C. and 5% CO2 in a humidified incubator, the culture supernatants were harvested for the determination of AP 40 concentrations using Perkin-Elmer Human Amyloid beta 1-40 (high specificity) Kit (Cat#AL275C).
In a Perkin-Elmer White Optiplate-384 (Cat#6007290), 2 ul culture supernatants were combined with 2 μl of a 10× AlphaLISA Anti-hAP Acceptor beads+Biotinylated Antibody Anti-Aβ 1-40 Mix (50 μg/mL/5 nM). After 1 hour room temperature incubation, 16 μl of a 1.25× preparation of Streptavidin (SA) Donor beads (25 μg/mL) were added and incubated for 30 minutes in the Dark. Light Emission at 615 nm was then recorded using EnVision-Alpha Reader. Levels of AP 40 in the culture supernatants were calculated as percentage of maximum signal (cells treated with 1% DMSO without inhibitor). The IC50 value were calculated using the Excel XLfit software.
Cellular Aβ-Lowering Assay (Cell-Based Assay)
as §1

hERG channel = hERG channel (Homo sapiens, UniProt Q12809); test: hERG IC20 assay; assay type: cell-based; settings: for IC20: human, hERG IC20 assay
Description: The methods to determine the hERG IC20 values was described in Industrializing electrophysiology: HT automated patch clamp on SyncroPatch® 96 using instant frozen cells. Polonchuk L., Methods Mol Biol. 2014; 1183:81-92. (doi: 10.1007/978-1-4939-1096-0_5.) PMID:25023303
QT prolongation is a cardiovascular risk caused by drug candidates which inhibit the hERG channel (human ether a go-go). A sufficient safety margin between the hERG IC20 value and the free plasma concentration necessary to achieve the envisaged thereapeutic effects is desired (ICH. The nonclinical evaluation of the potential for delayed ventricular repolarization (QT interval prolongation) by human pharmaceuticals (S7B), issued as CPMP/ICH/423/02, adopted by CHMP in May 2005 (http://www.ich.org/cache/compo/276-254-1.html; Redfern W S, Carlsson L, Davis A S, Lynch W G, MacKenzie I, Palethorpe S, Siegl P K, Strang I, Sullivan A T, Wallis R, Camm A J, Hammond T G. Relationships between preclinical cardiac electrophysiology, clinical QT interval prolongation and torsade de pointes for a broad range of drugs: evidence for a provisional safety margin in drug development. Cardiovasc Res. 2003 Apr. 1; 58(1):32-45.)). Reducing the activity against efflux transporters expressed at the blood-brain-barrier such as P-glycoprotein P-gp, might result in reduction of the free plasma concentration by optimizing brain penetration.

[4] = HEK293 APP cells, Aβ40 in supernatant, read-out: BACE1 cell act. Aβ40 IC50

T1 sequence (P56817 46-501): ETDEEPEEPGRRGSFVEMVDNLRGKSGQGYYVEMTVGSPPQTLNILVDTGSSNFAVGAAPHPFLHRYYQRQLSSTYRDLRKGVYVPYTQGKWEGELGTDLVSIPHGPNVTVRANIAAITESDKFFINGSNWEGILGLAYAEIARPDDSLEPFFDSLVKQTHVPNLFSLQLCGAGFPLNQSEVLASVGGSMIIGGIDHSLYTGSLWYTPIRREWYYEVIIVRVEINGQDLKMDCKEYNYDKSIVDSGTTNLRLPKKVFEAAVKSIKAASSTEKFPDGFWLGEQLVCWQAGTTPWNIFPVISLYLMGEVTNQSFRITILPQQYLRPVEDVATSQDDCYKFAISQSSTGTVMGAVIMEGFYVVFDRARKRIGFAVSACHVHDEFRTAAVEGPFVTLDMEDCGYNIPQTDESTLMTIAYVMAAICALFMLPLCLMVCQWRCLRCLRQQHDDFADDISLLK
Sequence of hERG channel (Q12809 whole entry): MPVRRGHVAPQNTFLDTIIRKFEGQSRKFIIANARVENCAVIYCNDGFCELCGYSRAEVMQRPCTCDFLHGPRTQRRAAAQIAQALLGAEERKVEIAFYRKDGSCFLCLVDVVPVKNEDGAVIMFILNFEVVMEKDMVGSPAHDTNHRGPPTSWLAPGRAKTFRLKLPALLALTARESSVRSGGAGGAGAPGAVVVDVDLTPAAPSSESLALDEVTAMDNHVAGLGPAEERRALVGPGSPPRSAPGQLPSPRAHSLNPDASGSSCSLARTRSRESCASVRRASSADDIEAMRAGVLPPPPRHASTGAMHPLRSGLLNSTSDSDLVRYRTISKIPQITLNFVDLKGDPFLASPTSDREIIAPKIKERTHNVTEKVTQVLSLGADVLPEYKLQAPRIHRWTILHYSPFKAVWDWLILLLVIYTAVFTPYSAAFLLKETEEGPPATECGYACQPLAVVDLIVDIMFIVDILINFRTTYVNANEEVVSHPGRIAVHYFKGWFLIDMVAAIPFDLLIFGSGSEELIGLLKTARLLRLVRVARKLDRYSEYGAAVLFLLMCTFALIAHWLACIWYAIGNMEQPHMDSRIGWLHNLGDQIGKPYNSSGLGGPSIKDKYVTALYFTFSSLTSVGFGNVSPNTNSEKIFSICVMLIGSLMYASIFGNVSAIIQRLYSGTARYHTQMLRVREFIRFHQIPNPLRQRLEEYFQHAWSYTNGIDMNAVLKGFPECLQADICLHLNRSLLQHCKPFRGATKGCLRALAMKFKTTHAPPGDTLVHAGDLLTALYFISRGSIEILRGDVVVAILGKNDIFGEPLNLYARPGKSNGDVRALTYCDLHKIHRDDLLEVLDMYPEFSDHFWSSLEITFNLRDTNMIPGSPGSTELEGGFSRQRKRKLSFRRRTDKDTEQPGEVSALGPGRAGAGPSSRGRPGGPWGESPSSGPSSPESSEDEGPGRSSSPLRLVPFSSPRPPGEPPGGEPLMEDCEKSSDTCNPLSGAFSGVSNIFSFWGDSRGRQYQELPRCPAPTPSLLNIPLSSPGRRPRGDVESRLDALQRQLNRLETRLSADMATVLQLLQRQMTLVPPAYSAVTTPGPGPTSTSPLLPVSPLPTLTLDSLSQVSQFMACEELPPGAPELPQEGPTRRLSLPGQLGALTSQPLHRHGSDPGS
Sequence of Mouse P-gp (P21447 whole entry): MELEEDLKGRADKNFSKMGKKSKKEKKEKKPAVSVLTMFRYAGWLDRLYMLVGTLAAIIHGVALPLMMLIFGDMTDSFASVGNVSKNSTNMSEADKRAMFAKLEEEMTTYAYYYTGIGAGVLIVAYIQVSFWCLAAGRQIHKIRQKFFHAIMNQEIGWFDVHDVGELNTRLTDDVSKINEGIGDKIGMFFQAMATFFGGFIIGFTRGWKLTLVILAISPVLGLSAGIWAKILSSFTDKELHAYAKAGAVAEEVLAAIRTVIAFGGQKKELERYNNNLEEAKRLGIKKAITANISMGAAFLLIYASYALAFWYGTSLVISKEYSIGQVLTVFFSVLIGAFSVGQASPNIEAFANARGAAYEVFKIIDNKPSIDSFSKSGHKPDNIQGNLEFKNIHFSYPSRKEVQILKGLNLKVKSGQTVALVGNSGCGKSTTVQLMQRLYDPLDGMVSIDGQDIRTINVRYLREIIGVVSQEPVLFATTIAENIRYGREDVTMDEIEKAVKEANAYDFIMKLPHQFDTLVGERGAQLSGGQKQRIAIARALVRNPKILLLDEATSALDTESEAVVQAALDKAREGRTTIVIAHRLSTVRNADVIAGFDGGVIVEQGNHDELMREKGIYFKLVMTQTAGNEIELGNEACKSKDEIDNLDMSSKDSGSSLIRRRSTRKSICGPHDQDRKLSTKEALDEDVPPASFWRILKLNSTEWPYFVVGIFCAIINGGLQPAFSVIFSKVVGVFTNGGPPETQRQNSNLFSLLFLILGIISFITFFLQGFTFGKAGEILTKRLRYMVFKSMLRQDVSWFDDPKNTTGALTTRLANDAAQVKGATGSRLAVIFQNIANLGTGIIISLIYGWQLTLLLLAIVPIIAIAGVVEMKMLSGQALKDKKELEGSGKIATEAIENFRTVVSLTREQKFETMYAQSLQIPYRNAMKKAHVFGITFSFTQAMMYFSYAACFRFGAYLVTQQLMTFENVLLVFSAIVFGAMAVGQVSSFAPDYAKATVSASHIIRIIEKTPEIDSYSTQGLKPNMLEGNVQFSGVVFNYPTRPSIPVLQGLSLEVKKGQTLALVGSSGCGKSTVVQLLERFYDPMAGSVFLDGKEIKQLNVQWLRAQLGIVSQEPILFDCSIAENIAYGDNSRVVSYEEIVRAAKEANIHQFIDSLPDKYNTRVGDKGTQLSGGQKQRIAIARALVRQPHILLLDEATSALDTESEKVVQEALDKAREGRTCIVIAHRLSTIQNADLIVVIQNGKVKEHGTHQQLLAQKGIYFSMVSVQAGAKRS
Sequence of Human P-gp (P08183 whole entry): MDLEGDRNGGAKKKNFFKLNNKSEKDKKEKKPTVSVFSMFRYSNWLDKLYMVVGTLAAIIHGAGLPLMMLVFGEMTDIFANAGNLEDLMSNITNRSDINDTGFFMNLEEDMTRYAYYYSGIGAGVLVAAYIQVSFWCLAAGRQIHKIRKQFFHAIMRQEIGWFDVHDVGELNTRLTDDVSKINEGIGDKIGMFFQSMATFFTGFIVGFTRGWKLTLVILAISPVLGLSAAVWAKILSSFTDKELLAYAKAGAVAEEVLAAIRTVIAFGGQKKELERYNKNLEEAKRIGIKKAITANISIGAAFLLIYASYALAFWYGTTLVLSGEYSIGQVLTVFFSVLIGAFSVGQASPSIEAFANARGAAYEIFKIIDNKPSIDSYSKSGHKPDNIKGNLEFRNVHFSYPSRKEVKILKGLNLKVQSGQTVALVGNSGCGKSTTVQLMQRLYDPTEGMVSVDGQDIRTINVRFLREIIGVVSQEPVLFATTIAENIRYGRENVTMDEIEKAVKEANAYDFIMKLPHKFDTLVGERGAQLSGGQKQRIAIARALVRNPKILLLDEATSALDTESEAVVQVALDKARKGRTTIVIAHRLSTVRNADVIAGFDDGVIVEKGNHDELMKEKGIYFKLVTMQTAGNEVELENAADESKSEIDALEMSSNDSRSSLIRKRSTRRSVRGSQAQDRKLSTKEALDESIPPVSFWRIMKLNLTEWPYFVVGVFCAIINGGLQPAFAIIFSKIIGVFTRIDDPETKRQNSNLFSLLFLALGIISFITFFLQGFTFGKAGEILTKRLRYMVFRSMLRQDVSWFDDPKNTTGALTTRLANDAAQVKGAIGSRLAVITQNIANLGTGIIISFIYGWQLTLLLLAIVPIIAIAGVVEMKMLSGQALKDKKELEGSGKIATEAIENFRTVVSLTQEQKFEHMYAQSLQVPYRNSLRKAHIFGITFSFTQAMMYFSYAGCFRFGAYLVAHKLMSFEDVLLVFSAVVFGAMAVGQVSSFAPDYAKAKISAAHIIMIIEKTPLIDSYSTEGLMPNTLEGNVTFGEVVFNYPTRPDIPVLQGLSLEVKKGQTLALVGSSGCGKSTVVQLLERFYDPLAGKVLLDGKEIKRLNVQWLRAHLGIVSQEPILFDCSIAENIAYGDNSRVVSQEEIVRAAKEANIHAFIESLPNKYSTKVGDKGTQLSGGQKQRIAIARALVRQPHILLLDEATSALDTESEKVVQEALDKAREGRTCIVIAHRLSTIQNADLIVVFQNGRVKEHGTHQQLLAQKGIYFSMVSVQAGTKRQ

Row | SMILES | IC50 (BACE1 [1]) [µM] | BACE2/BACE1 IC50 ratio (BACE2) | Brain Aβ-lowering 3 mg/kg [2] [%] | Brain Aβ-lowering 10 mg/kg [2] [%] | Brain Aβ-lowering 30 mg/kg [2] [%] | Human P-gp ER (Human P-gp) | Mouse P-gp ER (Mouse P-gp) | IC50 (BACE1 [3]; [4]) [µM] | Brain Aβ-lowering 3 mg/kg ([2]; listed as comparator 5) [%] | higher affinity to hERG than example 1 (hERG channel) [fold] | IC20 (hERG channel) [µM] | IC50 (BACE1 [3]; read-out: cellular potency) [µM] | IC20 (hERG channel; instant frozen cells (hERG channel, automated patch clamp)) [µM]
1 | C[C@]1(c2nc(NC(=O)c3ccc(C#N)cn3)ccc2F)N=C(N)O[C@H](C(F)(F)F)C1(F)F [Comparator 1, N-(6-((4R,6S)-2-Amino-5,5-difluoro-4-methyl-6-(trifluoromethyl)-5,6-dihydro-4H-1,3-oxazin-4-yl)-5-fluoropyridin-2-yl)-5-cyanopicolinamide] | 0.029 | 3.0 | 2 | 4 | 66 | 1.4 | 1.3 | 0.324 |  |  |  |  | 
2 | Cc1cc(C#N)cnc1C(=O)Nc1ccc(F)c([C@]2(C)C[C@@H](C(F)(F)F)OC(N)=N2)n1 [Comparator 5] |  |  | 7 | 70 |  | 3.3 | 8.1 |  | 7 | 5.3 | 0.44 |  | 
3 | C[C@]1(c2nc(NC(=O)c3ccc(C#N)cn3)ccc2F)N=C(N)O[C@@H](C(F)(F)F)[C@@H]1F [Comparator 7] |  |  |  |  | 70 |  |  |  |  |  |  |  | 
4 | Cc1cc(C#N)cnc1C(=O)Nc1ccc(F)c([C@@]2(C)N=C(N)O[C@H](C(F)(F)F)C2(F)F)n1 [Comparator 2, N-(6-((4R,6S)-2-Amino-5,5-difluoro-4-methyl-6-(trifluoromethyl)-5,6-dihydro-4H-1,3-oxazin-4-yl)-5-fluoropyridin-2-yl)-5-cyano-3-methylpicolinamide] | 0.019 | 3.0 | 10 | 42 |  |  | 1.4 | 0.203 |  |  |  |  | 
5 | C[C@]1(c2nc(NC(=O)c3ccc(C#N)cn3)ccc2F)N=C(N)O[C@@H](C(F)(F)F)C1(F)F [Comparator 3, N-(6-((4R,6R)-2-Amino-5,5-difluoro-4-methyl-6-(trifluoromethyl)-5,6-dihydro-4H-1,3-oxazin-4-yl)-5-fluoropyridin-2-yl)-5-cyanopicolinamide] |  |  |  |  |  |  |  | 37.4 |  |  |  | > 35 | 
6 | C[C@@]1(c2nc(NC(=O)c3ccc(C#N)cn3)ccc2F)C[C@@H](C(F)(F)F)OC(N)=N1 [Comparator 4] | 0.033 |  |  |  |  |  |  | 0.004 |  |  | 0.04 |  | 0.04
